Reference: US7786097B2, “Tricyclic compounds, compositions and methods” (Pfizer Inc., priority 2007, dated 2010)

Assays:
Assay type in all cases: cell-based
[1] = test system: IL-6 levels in Human A549 lung epithelial cells; assay: IL-1β-stimulated IL-6 in A549 cells; conditions: additional results (footnote a)
Protocol: IL-6 IC50 and % Inhibition
Human A549 lung epithelial cells (American Type Culture Collection, Rockville, Md.) were cultured in Kaighn's F-12K medium with penicillin-streptomycin (10 U/mL) and 10% heat-inactivated fetal bovine serum (all from Invitrogen, Grand Island, N.Y.). A549 cells were plated at a density of 30,000 cells/well in 96-well plates and incubated overnight at 37° C. and with 5% CO2. The cells were serum-starved by replacing the growth medium with serum-free Kaighn's F-12K medium with penicillin-streptomycin (10 U/mL) and, again, incubating overnight at 37° C. and with 5% CO2. On the third day, the medium was replaced with fresh serum-free medium and the cells were incubated with or without compound (vehicle was DMSO at 0.1% maximum concentration) for approximately 1 hour and then stimulated with 1 ng/mL recombinant human IL-1β (R&D Systems, Minneapolis, Minn.) for 20 hours at 37° C. and with 5% CO2. Cell supernatants were collected for determination of IL-6 levels using MSD (Meso Scale Discovery, Gaithersburg, Md.) 96-well Single Spot plates as per the manufacturer's instructions. Plates were read with an MSD Sector Imager 6000. […] Vehicle was used to define the 0% inhibition control. Percent inhibition for each compound concentration, relative to these controls, was calculated using Excel (Microsoft, Redmond, Wash.). […]

[2] = test system: IFNγ production in human whole blood; assay: Ex vivo LPS-stimulated human whole blood, IFNγ; conditions: LPS 100 ng/ml, 22 hours, mean of two donors
Protocol: (§1) Venous blood from human donors was collected as 10 ml aliquots in tubes containing sodium heparin (BD Vacutainer from Becton Dickinson and Company, Franklin Lakes, N.Y.). Blood was added to sterile polystyrene round bottom 96-well tissue culture plates (Corning Costar) at 100 μl/well, omitting the outside wells. Media (RPMI Medium 1640 with L-glutamine, Invitrogen Corporation, Carlsbad, Calif.) was added to the blood in 90 μl aliquots for a total volume of 190 μl. Outside wells were filled with 200 μl of media. Blood was placed in a humidified 37° C. incubator with 5% CO2 while compounds were prepared (nearly 60 minutes).
(§2) Compounds were prepared from 10 mM stock solutions in dimethylsulfoxide (DMSO, Sigma-Aldrich). […] Final DMSO and ethanol concentrations in the assay were 0.1% and 1.5%. The samples were gently triturated twice to mix and replaced in the incubator. LPS stock (E. coli serotype 0111:B4, Sigma-Aldrich), stored in aliquots of 100 μg/ml in RPMI at −20° C., was diluted 1/50 in RPMI to make a working stock solution. After 60 minutes of incubation, 10 μl of the prepared LPS working stock was added to the blood to a final concentration of 100 ng/ml, omitting wells to be used as negative control. The samples were again gently triturated and the plates incubated overnight for 22 hours. Following incubation, the blood was centrifuged at 1500×g for 5 minutes and the plasma removed to either freeze at −20° C. or assay for cytokine release.
(§3) IL-1β, IFNγ, IL-6, and TNFα protein levels were measured using Meso Scale assay kits (Meso Scale Discovery, Gaithersburg, Md.). Reagents were allowed to come to room temperature. Meso Scale plates were blocked with 30 μl of human plasma/serum assay diluent with gentle shaking for 60 minutes at room temperature. Plates were washed 3× with wash buffer (PBS, Invitrogen Corporation, with 0.05% Tween-20, Sigma-Aldrich). Calibrators for standard curves were prepared in human plasma/serum assay diluent as a […] serial dilution to achieve final concentrations ranging from 50000 pg/ml to 3.2 pg/ml. Samples and calibrators were added at 20 μl/well, then incubated at room temperature with gentle shaking for 90 minutes. Plates were again washed 3 times with wash buffer. Detection antibody was diluted in human plasma/serum antibody diluent to 1 μg/ml and added to the plate at 20 μl/well. Plates were incubated as before for 60 minutes and washed again. Read Buffer T<4×) was diluted 1:1 with mqH2O to 2 times concentration and 150 μl added to each well. Plates were analyzed on the SECTOR Imager 6000 (Meso Scale Discovery) to generate raw signal values.
(§4) IL-1β, IFN-γ, IL-6, and TNFα sample values were verified to be within the calibrator standard curves. Individual values were compared to positive and negative controls (vehicle treated blood with LPS and vehicle treated blood without LPS, respectively) to generate % inhibition. Triplicate values were averaged for each donor. The values for two donors were averaged (only one donor was used for IL-1β) and graphed using 4-parameter fit curves in the GraFit 5.0.11 application.

[3] = test system: IL-6 production in human whole blood; assay: Ex vivo LPS-stimulated human whole blood, IL-6; conditions: LPS 100 ng/ml, 22 hours, mean of two donors
Protocol: as §1, §2, §3, §4

## C[C@]12C=CC(=O)C=C1CC[C@@H]1[C@@H]2[C@@H](O)C[C@@]2(C)[C@H]1CC[C@]2(O)C(=O)CO [Prednisolone]
[1]
  IL-6 % Inhibition: 100%
[2]; 0.457247 nM
  inhibition at 0.000457247 µM: 4.93%
[2]; 1.371742 nM
  inhibition at 0.00137174 µM: 10.9%
[2]; 4.115226 nM
  inhibition at 0.00411523 µM: 5.16%
[2]; 12.34568 nM
  inhibition at 0.0123457 µM: 25.7%
[2]; 37.03704 nM
  inhibition at 0.037037 µM: 63.5%
[2]; 111.1111 nM
  inhibition at 0.111111 µM: 95%
[2]; 333.3333 nM
  inhibition at 0.333333 µM: 99.8%
[2]; 1000 nM
  inhibition at 1 µM: 100%
[3]; 0.457247 nM
  inhibition at 0.000457247 µM: 2.22%
[3]; 1.371742 nM
  inhibition at 0.00137174 µM: -0.941%
[3]; 4.115226 nM
  inhibition at 0.00411523 µM: -0.232%
[3]; 12.34568 nM
  inhibition at 0.0123457 µM: -0.417%
[3]; 37.03704 nM
  inhibition at 0.037037 µM: 5.03%
[3]; 111.1111 nM
  inhibition at 0.111111 µM: 11.7%
[3]; 333.3333 nM
  inhibition at 0.333333 µM: 40.3%
[3]; 1000 nM
  inhibition at 1 µM: 62.1%
